Target: T1, human C5a receptor (CD88) (Homo sapiens, UniProt P21730)
T1 construct: expressed in transfected cells; host or cells: rat basophilic leukemia (RBL) cells, stably transfected
T1 sequence (P21730 1-350): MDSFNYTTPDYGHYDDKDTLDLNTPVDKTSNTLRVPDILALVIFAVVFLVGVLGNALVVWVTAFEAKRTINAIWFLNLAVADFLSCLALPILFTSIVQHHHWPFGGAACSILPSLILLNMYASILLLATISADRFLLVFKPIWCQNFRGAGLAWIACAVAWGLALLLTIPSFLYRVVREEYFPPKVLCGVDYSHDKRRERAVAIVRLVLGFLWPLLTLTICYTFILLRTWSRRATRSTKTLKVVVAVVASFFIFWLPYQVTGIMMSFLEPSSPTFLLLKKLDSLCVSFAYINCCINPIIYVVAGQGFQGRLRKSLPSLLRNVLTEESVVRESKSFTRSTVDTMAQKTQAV
Assay: C5a induced enzyme (glucosaminidase) release assay in RBL cells expressing the human C5a receptor (Example 28)
Format: cell-based
Details: RBL cells with human C5aR; read-out: IC50 for the inhibition of C5a induced enzyme release
Description: Basophile leukemia cells from rats (RBL), which express the human C5a receptor (CD88), are cultivated in DMEM with 10% fetal calf serum, 100 U/ml penicillin, 100 μg/ml streptomycin and 2 mM glutamin (all constituents are from Biochrome, Berlin) at 37° C. and with 10% CO2 until a confluent layer is obtained. All following details refer to a tissue culture flask with 75 cm^2 surface. The used up medium is removed. The cells are washed with 10 ml PBS (Dulbecco's PBS, Biochrome) and then covered with 3 ml cell dissociation solution (CDS, Sigma). The cells are incubated for 1 minute at room temperature. Then the CDS is removed and the cells are incubated for further 10-15 minutes at 37° C. to detach the cells completely from the flask. 20 μl solution of the compound to be testet are used in the assay. […] The dilution series are prepared in ⅓ or ½ steps. […] The cells are counted and centrifuged (200 g, 10 min). The cell pellet is taken up with pre-heated HAG-CM, and the cell density is adjusted to 2×10^6 Zellen/ml. The cells are incubated for 5 minutes at 37° C. 2.7 μl of a cytochalasin B solution (1000 μg/ml in DMSO, Sigma) are added per ml cell suspension. The Zellen are incubated for another 3 min at 37° C. Then, 75 μl of the cell suspension are added to the 20 μl solution containing the compounds to be tested. […] The cells are again incubated for 10 minutes at 37° C. […] After this the plates are put on ice and centrifuged for 3 minutes at 1200×g and 4° C. […] The plate is incubated for 1 hour at 37° C. […] The IC50 value is determined by solving the four parameter equation y=((A−D)/(1+(x/C)^B))+D.

| SMILES | IC50 [nM] |
| --- | --- |
| CCc1ccc(N(C(=O)Nc2c(CC)c(N)cc(Cl)c2CC)[C@@H](C)c2ccc(Cl)cc2)cc1F | 35 |
| CCc1ccc(Cl)c(CC)c1NC(=O)N(Cc1ccc(OC)cc1)c1ccc(C(C)C)cc1 [compound 24, 3-(3-Chlor-2,6-diethyl-phenyl)-1-(4-isopropyl-phenyl)-1-(4-methoxy-benzyl)-urea] | 1050 |

Same assay, conditions: inhibition of C5a induced enzyme release, RBL cells with human C5aR; read-out: Activity-range (antagonistic activity, IC50 enzyme release)

| SMILES | IC50 [nM] |
| --- | --- |
| CCc1ccc(N)c(CC)c1NC(=O)N(c1ccc(C(C)C)cc1)[C@H](C)c1ccc(C)cc1 [compound 68, (R)-3-(3-amino-2,6-diethyl-phenyl)-1-(4-isopropyl-phenyl)-1-(1-p-tolyl-ethyl)-urea] | 200 to 5000 |
| CCc1c(N)cc(Cl)c(CC)c1NC(=O)N(Cc1ccc(Cl)cc1)c1ccc(OC)c2ccccc12 [compound 115, 3-(3-amino-5-chloro-2,6-diethyl-phenyl)-1-(4-chloro-benzyl)-1-(4-methoxy-naphthaline-1-yl)-urea] | 60 to 200 |
| CCc1ccc(NCC(N)=O)c(CC)c1NC(=O)N(Cc1ccc(OC)cc1)c1ccc(C(C)C)cc1 [compound 29, 2-{2,4-diethyl-3-[3-(4-isopropyl-phenyl)-3-(4-methoxy-benzyl)-ureido]-phenylamino}-acetamide] | 200 to 5000 |
| CCc1ccc(N(Cc2ccc(C)cc2)C(=O)Nc2c(CC)c(N)cc(Cl)c2CC)cc1 [compound 53, 3-(3-amino-5-chloro-2,6-diethyl-phenyl)-1-(4-ethyl-phenyl)-1-(4-methyl-benzyl)-urea] | 60 to 200 |
| CCc1ccc(N)c(CC)c1NC(=O)N(Cc1ccc2c(c1)CCO2)c1ccc(C(C)C)cc1 [compound 67, 3-(3-amino-2,6-diethyl-phenyl)-1-(2,3-dihydro-benzofuran-5-ylmethyl)-1-(4-isopropyl-phenyl)-urea] | 200 to 5000 |
| CCc1c(N)cc(Cl)c(CC)c1NC(=O)N(Cc1ccc(C)cc1)c1ccc(C(C)C)cc1 [compound 34, 3-(3-amino-5-chloro-2,6-diethyl-phenyl)-1-(4-isopropyl-phenyl)-1-(4-methyl-benzyl)-urea] | 60 to 200 |
| CCc1c(N)cc(Cl)c(CC)c1NC(=O)N(Cc1ccc(Cl)cc1)c1ccc(N(C)C)cc1 [compound 127, 3-(3-amino-5-chloro-2,6-diethyl-phenyl)-1-(4-chloro-benzyl)-1-(4-dimethylamino-phenyl)-urea] | 200 to 5000 |
| CCc1ccc(N(Cc2cnc(N(C)C)nc2)C(=O)Nc2c(CC)c(N)cc(Cl)c2CC)cc1 [compound 121, 3-(3-amino-5-chloro-2,6-diethyl-phenyl)-1-(2-dimethylamino-pyrimidin-e5-ylmethyl)-1-(4-ethyl-phenyl)-urea] | 200 to 5000 |
| CCc1ccc(N)c(CC)c1NC(=O)N(Cc1ccc(C(F)(F)F)cc1)c1ccc(C(C)C)cc1 [compound 50, 3-(3-amino-2,6-diethyl-phenyl)-1-(4-isopropyl-phenyl)-1-(4-trifluoromethyl-benzyl)-urea] | 200 to 5000 |
| CCc1c(N)cc(Cl)c(CC)c1NC(=O)N(c1ccc(NC)cc1)C(C)c1ccc2c(c1)ncn2C (stereo not drawn) [compound 138, 3-(3-amino-5-chloro-2,6-diethyl-phenyl)-1-(4-methylamino-phenyl)-1-[1-(1-methyl-1H-benzoimidazol-5-yl)-ethyl]-urea] | 60 to 200 |
| COc1ccc(CN(C(=O)Nc2c(C(C)C)cccc2C(C)C)c2ccc(C(C)C)cc2)cc1 [compound 134, 3-(2,6-diisopropyl-phenyl)-1-(4-isopropyl-phenyl)-1-(4-methoxy-benzyl)-urea] | 200 to 5000 |
| CCc1c(N)cc(Cl)c(CC)c1NC(=O)N(Cc1cnc(C)cn1)c1ccc(C(C)C)cc1 [compound 75, 3-(3-amino-5-chloro-2,6-diethyl-phenyl)-1-(4-isopropyl-phenyl)-1-(5-methyl-pyrazin-2-ylmethyl)-urea] | 60 to 200 |
| CCc1ccc(N)c(CC)c1NC(=O)N(c1ccc(C(C)C)cc1)[C@@H](C)c1ccc(C)cc1 [compound 69, (S)-3-(3-amino-2,6-diethyl-phenyl)-1-(4-isopropyl-phenyl)-1-(1-p-tolyl-ethyl)-urea] | 60 to 200 |
| CCc1c(Cl)cc(NCC(=O)OC(C)(C)C)c(CC)c1NC(=O)N(Cc1ccc(OC)cc1)c1ccc(C(C)C)cc1 [compound 45, {5-chloro-2,4-diethyl-3-[3-(4-isopropyl-phenyl)-3-(4-methoxy-benzyl)-ureido]-phenylamino} acetic acid tert-butyl ester] | 60 to 200 |
| CCc1ccc(CN(C(=O)Nc2c(CC)c(N)cc(Cl)c2CC)c2ccc(C(C)C)cc2)cc1 [compound 35, 3-(3-amino-5-chloro-2,6-diethyl-phenyl)-1-(4-ethyl-benzyl)-1-(4-isopropyl-phenyl)-urea] | 200 to 5000 |
| CCc1c(Cl)cc(NCc2ccco2)c(CC)c1NC(=O)N(Cc1ccc(OC)cc1)c1ccc(C(C)C)cc1 [compound 36, 3-{3-Chloro-2,6-diethyl-5-[(furan-2-ylmethyl)-amino]-phenyl}-1-(4-isopropyl-phenyl)-1-(4-methoxy-benzyl)-urea] | 200 to 5000 |
| CCc1c(N)cc(Cl)c(CC)c1NC(=O)N(Cc1ccc(OC)nc1)c1ccc(C(C)C)cc1 [compound 47, 3-(3-amino-5-chloro-2,6-diethyl-phenyl)-1-(4-isopropyl-phenyl)-1-(6-methoxy-pyridin-3-ylmethyl)-urea] | 200 to 5000 |
| CCc1ccc(NCC(=O)OC)c(CC)c1NC(=O)N(Cc1ccc(OC)cc1)c1ccc(C(C)C)cc1 [compound 30, {2,4-diethyl-3-[3-(4-isopropyl-phenyl)-3-(4-methoxy-benzyl)-ureido]-phenylamino}-acetic acid methyl ester] | 200 to 5000 |
| CCc1c(N)cc(Cl)c(CC)c1NC(=O)N(Cc1ccc(C)nc1)c1ccc(OC)cc1F [compound 124, 3-(3-amino-5-chloro-2,6-diethyl-phenyl)-1-(2-fluoro-4-methoxy-phenyl)-1-(6-methyl-pyridin-3-ylmethyl)-urea] | 200 to 5000 |
| CCc1ccc(N)c(CC)c1NC(=O)N(Cc1ccc(OC)nc1)c1ccc(C(C)C)cc1 [compound 48, 3-(3-amino-2,6-diethyl-phenyl)-1-(4-isopropyl-phenyl)-1-(6-methoxy-pyridin-3-ylmethyl)-urea] | 200 to 5000 |
| CCc1c(N)cc(Cl)c(CC)c1NC(=O)N(Cc1cccnc1)c1ccc(C(C)C)cc1 [compound 74, 3-(3-amino-5-chloro-2,6-diethyl-phenyl)-1-(4-isopropyl-phenyl)-1-pyridin-3-ylmethyl-urea] | 200 to 5000 |
| CCc1c(N)cc(Cl)c(CC)c1NC(=O)N(Cc1ccc(Cl)cc1)c1ccc(C(C)C)cc1 [compound 72, 3-(3-amino-5-chloro-2,6-diethyl-phenyl)-1-(4-chlor-benzyl)-1-(4-isopropyl-phenyl)-urea] | 60 to 200 |
| CCc1c(N)cc(Cl)c(CC)c1NC(=O)N(c1ccc(C(C)C)cc1)[C@H](C)c1ccc(C)cc1 [compound 57, (R)-3-(3-Amino-5-chloro-2,6-diethyl-phenyl)-1-(4-isopropyl-phenyl)-1-(1-p-tolyl-ethyl)-urea] | 200 to 5000 |
| CCc1ccc(N(C(=O)Nc2c(CC)c(N)cc(Cl)c2CC)C2CCc3cc(Cl)ccc32)cc1 (stereo not drawn) [compound 104, 3-(3-amino-5-chloro-2,6-diethyl-phenyl)-1-(5-chloro-indane-1-yl)-1-(4-ethyl-phenyl)-urea] | 60 to 200 |
| CCc1ccc(N(Cc2ccc(F)cc2)C(=O)Nc2c(CC)c(N)cc(Cl)c2CC)cc1 [compound 96, 3-(3-amino-5-chloro-2,6-diethyl-phenyl)-1-(4-ethyl-phenyl)-1-(4-fluoro-benzyl)-urea] | 60 to 200 |

Reference: patent US8071810B2, “C5a receptor antagonists” (Jerini AG, priority 2005, dated 2011)
